Source: patent publication US20120095059A1, “Compositions and Methods for Treating Type II Diabetes and Related Disorders” (priority 2010, published 2012)

Columns and labels:
[1] = tested on: patients with type 2 diabetes; test: 12-week, double blind, randomized, parallel group, multi-center study of pioglitazone, glimepiride or their combination; format: in vivo, human; details: after 12 weeks, pioglitazone 15 mg per day, glimepiride 2 mg per day, or both; for HbA1c levels, change from baseline: baseline HbA1c greater than 8%
Procedure: Objective: […] Research Design and Methods: The study was a 12-week, double blind, randomized, parallel group, multi-center study, with 120 patients randomized to receive pioglitazone (15 mg per day), glimepiride (2 mg per day), or a combination of pioglitazone plus glimepiride (15 mg per day; 2 mg per day). Patients started a strict dietary regimen 1 week before receiving the first dose of each treatment. The study was open to patients with type 2 diabetes mellitus and having HbA1c levels greater than 8%. Patients were over 30 years of age and have had diabetes for at least 1 year.

[2] = tested on: patients with advanced type 2 diabetes; test: Predicted effect of adding metformin as a third agent, based upon a meta-analysis of metformin clinical trials; format: in vivo, human; details: metformin added as third agent to pioglitazone plus glimepiride
From the text: Patients having HbA1c levels greater than 7% have a high risk for developing cardiovascular disease and other complications of diabetes. Thus, in these patients, it is necessary to add a third agent to the regimen in order to obtain HbA1c values below 7%. Based upon a meta-analysis of metformin clinical trials, the addition of metformin as a third agent to this regimen will produce an additional reduction in HbA1c of about 1% and will contribute to adequate glycemic control in such patients with advanced type 2 diabetes. The addition of metformin in this triple therapy provides a synergistic mechanism of action, both improving insulin sensitivity and suppressing hepatic glucose output.

[3] = tested on: patients with type 2 diabetes mellitus; details: monotherapy; Rosenstock et al., Diabetes Care 25:1529-1533 (2002); cited from earlier work

SMILES	fasting blood glucose, decrease from baseline [1] [mg/dL]	HbA1c levels, change from baseline [1] [%]	additional reduction in HbA1c [2]	reduction in HbA1c [3] [%]
CCC1=C(C)CN(C(=O)NCCc2ccc(S(=O)(=O)NC(=O)N[C@H]3CC[C@H](C)CC3)cc2)C1=O [glimepiride]	-22	−0.98		
CN(C)C(=N)N=C(N)N [metformin]			about 1%	
CC(C)[C@H]1CC[C@H](C(=O)N[C@H](Cc2ccccc2)C(=O)O)CC1 [nateglinide]				0.6
CCc1ccc(CCOc2ccc(CC3SC(=O)NC3=O)cc2)nc1 (stereo not drawn) [pioglitazone]	-28	−0.14		
